Measured values from PMC8920474 (Current Research in Chemical Biology, 2022).

Experiments:
TMPRSS2 = TMPRSS2 (Homo sapiens, UniProt O15393); assay: VeroE6/TMPRSS2 cell-based TMPRSS2 enzyme inhibitory assay; details: VeroE6/TMPRSS2 cells; up to a concentration of 4.0 μM
TMPRSS2 in LNCaP cells = test system: TMPRSS2 in LNCaP cells; design: species or system human; details: read-out: IC50, LNCaP cell-based proteolytic enzyme inhibition
furin = furin (Homo sapiens, UniProt P09958); assay: Vero/furin cell-based furin enzyme inhibitory assay; details: for furin inhibitory activity: Vero/furin cells, up to a concentration of 40.0 μM
Chain of furin (P09958 108-794): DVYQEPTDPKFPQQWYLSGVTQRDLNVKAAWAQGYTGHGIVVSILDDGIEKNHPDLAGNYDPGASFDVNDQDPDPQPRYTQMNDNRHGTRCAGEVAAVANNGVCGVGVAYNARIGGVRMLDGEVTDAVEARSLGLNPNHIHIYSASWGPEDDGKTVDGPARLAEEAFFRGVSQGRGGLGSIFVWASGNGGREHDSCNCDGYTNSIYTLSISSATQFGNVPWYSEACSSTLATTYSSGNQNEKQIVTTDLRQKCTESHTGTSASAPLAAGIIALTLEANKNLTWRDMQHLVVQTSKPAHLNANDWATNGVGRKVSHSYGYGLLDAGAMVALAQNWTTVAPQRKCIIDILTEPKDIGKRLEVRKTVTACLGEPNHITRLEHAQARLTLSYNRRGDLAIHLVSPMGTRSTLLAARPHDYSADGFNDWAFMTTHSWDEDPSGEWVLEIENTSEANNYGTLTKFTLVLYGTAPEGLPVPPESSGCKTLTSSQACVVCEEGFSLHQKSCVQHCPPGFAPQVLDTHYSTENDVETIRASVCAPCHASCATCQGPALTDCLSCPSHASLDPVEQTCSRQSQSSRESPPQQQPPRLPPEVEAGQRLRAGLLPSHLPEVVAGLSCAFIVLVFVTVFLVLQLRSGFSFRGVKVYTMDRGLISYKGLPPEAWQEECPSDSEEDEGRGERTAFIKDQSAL

Chain of TMPRSS2 (O15393 whole entry): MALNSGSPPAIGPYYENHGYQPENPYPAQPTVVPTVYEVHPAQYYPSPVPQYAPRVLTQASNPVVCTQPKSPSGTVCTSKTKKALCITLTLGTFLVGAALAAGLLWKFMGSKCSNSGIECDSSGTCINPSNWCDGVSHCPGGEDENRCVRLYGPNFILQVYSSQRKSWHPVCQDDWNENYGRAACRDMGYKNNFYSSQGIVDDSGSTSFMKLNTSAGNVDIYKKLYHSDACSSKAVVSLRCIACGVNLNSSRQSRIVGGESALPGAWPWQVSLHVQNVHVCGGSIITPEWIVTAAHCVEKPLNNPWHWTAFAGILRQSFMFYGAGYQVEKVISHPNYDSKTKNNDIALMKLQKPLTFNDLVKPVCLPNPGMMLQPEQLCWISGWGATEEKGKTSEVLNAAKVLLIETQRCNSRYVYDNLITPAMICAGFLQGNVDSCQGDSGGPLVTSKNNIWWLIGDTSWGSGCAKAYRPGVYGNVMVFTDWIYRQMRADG

## CN(Cc1cc(Br)cc(Br)c1N)C1CCCCC1 [Bromhexine, bromhexine]
TMPRSS2
  TMPRSS2 inhibitory activity: inactive

## CN(C)C(=O)COC(=O)Cc1ccc(OC(=O)c2ccc(NC(=N)N)cc2)cc1 [camostat]
TMPRSS2 in LNCaP cells
  IC50: 0.026 ± 0.03 µM
furin
  furin inhibitory activity: inactive

## N=C(N)c1ccc(/N=N/Nc2ccc(C(=N)N)cc2)cc1 [diminazene]
furin
  IC50: 13.2 µM

## N=C(N)c1ccc2cc(OC(=O)c3ccc(N=C(N)N)cc3)ccc2c1 [nafamostat]
furin
  furin inhibitory activity: inactive
